Publication PMC5218480 (PLoS ONE, 2017)

Tested on: MV-4-11 cells
Test: Gene expression microarray analysis (Affymetrix PrimeView) and GSEA
Format: cell-based, human
Set-up: RFU PODN (11730768_x_at) / Fold change /veh PODN (11730768_x_at) / RFU LINC00158 (11744669_a_at) / Fold change /veh LINC00158 (11744669_a_at) / RFU DUSP10 (11751237_a_at) / Fold change /veh DUSP10 (11751237_a_at) / RFU ID3 (11757404_x_at) / Fold change /veh ID3 (11757404_x_at) / RFU PLEKHG5 (11737974_s_at) / Fold change /veh PLEKHG5 (11737974_s_at) / RFU LRRC4B (11730491_at) / Fold change /veh LRRC4B (11730491_at) / RFU GIMAP4 (11747438_a_at) / Fold change /veh GIMAP4 (11747438_a_at) / RFU KRT8 (11758183_x_at) / Fold change /veh KRT8 (11758183_x_at) / RFU CNN1 (11734310_a_at) / Fold change /veh CNN1 (11734310_a_at) / RFU VPS37D (11726825_at) / Fold change /veh VPS37D (11726825_at) / RFU C10orf10 (11716522_x_at) / Fold change /veh C10orf10 (11716522_x_at) / RFU KIR2DL2 /// KIR2DL4 /// KIR2DL5A /// KIR2DL5B /// KIR2DS1 /// KIR2DS2 /// KIR2DS3 /// KIR2DS4 /// KIR3DL3 /// KIR3DL3 /// KIR3DS1 (11738374_at) / Fold change /veh KIR2DL2 /// KIR2DL4 /// KIR2DL5A /// KIR2DL5B /// KIR2DS1 /// KIR2DS2 /// KIR2DS3 /// KIR2DS4 /// KIR3DL3 /// KIR3DL3 /// KIR3DS1 (11738374_at) / RFU C1QL1 (11718748_at) / Fold change /veh C1QL1 (11718748_at) / RFU TMPRSS4 (11747572_a_at) / Fold change /veh TMPRSS4 (11747572_a_at) / RFU HAMP (11756126_x_at) / Fold change /veh HAMP (11756126_x_at) / RFU RNFT2 (11725882_a_at) / Fold change /veh RNFT2 (11725882_a_at) / RFU NR4A2 (11747474_a_at) / Fold change /veh NR4A2 (11747474_a_at) / RFU ABCC12 (11746883_a_at) / Fold change /veh ABCC12 (11746883_a_at) / RFU TMEM136 (11760407_x_at) / Fold change /veh TMEM136 (11760407_x_at) / RFU CLDN22 /// WWC2 (11732394_at) / Fold change /veh CLDN22 /// WWC2 (11732394_at) / RFU HLA-DPB1 (11760878_x_at) / Fold change /veh HLA-DPB1 (11760878_x_at) / RFU SPINT1 (11716480_a_at) / Fold change /veh SPINT1 (11716480_a_at) / RFU GAP43 (11754022_s_at) / Fold change /veh GAP43 (11754022_s_at) / RFU A4GNT (11735810_at) / Fold change /veh A4GNT (11735810_at) / RFU PRB3 (11715151_x_at) / Fold change /veh PRB3 (11715151_x_at) / RFU TUBB4B (11761932_at) / Fold change /veh TUBB4B (11761932_at) / RFU CAPN14 (11732068_a_at) / Fold change /veh CAPN14 (11732068_a_at) / RFU TMCC2 (11721928_a_at) / Fold change /veh TMCC2 (11721928_a_at) / RFU IRGQ (11745062_a_at) / Fold change /veh IRGQ (11745062_a_at) / RFU FAM174B (11720279_a_at) / Fold change /veh FAM174B (11720279_a_at) / RFU TMPRSS4 (11748680_a_at) / Fold change /veh TMPRSS4 (11748680_a_at) / RFU FAM212B (11763350_a_at) / Fold change /veh FAM212B (11763350_a_at) / RFU PLEKHG5 (11743358_a_at) / Fold change /veh PLEKHG5 (11743358_a_at) / RFU ZSCAN30 (11745921_a_at) / Fold change /veh ZSCAN30 (11745921_a_at) / RFU CMKLR1 (11741424_a_at) / Fold change /veh CMKLR1 (11741424_a_at) / RFU LOC101060620 /// MAPK8IP1 (11723275_at) / Fold change /veh LOC101060620 /// MAPK8IP1 (11723275_at) / RFU SPTSSB (11747773_x_at) / Fold change /veh SPTSSB (11747773_x_at) / RFU PRSS12 (11739890_at) / Fold change /veh PRSS12 (11739890_at) / RFU BIN1 (11741810_x_at) / Fold change /veh BIN1 (11741810_x_at) / RFU WNT11 (11732464_a_at) / Fold change /veh WNT11 (11732464_a_at) / RFU C10orf10 (11716521_a_at) / Fold change /veh C10orf10 (11716521_a_at) / RFU C5orf56 (11738089_at) / Fold change /veh C5orf56 (11738089_at) / RFU CYB561 (11721691_x_at) / Fold change /veh CYB561 (11721691_x_at) / RFU ANKRD19P (11752326_a_at) / Fold change /veh ANKRD19P (11752326_a_at) / RFU OR2T12 /// OR2T33 /// OR2T8 (11738714_s_at) / Fold change /veh OR2T12 /// OR2T33 /// OR2T8 (11738714_s_at) / RFU VCAN (11748164_a_at) / Fold change /veh VCAN (11748164_a_at) / RFU JSRP1 (11732532_at) / Fold change /veh JSRP1 (11732532_at) / RFU KRTAP10-11 (11738290_x_at) / Fold change /veh KRTAP10-11 (11738290_x_at) / RFU MYO3A (11730013_a_at) / Fold change /veh MYO3A (11730013_a_at) / RFU EBF3 (11725865_a_at) / Fold change /veh EBF3 (11725865_a_at) / RFU CAMK2N1 (11719241_x_at) / Fold change /veh CAMK2N1 (11719241_x_at) / RFU C5orf56 (11738088_a_at) / Fold change /veh C5orf56 (11738088_a_at) / RFU OLFML3 (11715873_a_at) / Fold change /veh OLFML3 (11715873_a_at) / RFU LOC100653217 /// NTM (11731650_a_at) / Fold change /veh LOC100653217 /// NTM (11731650_a_at) / RFU MAPK11 (11762145_a_at) / Fold change /veh MAPK11 (11762145_a_at) / RFU FIZ1 (11724087_x_at) / Fold change /veh FIZ1 (11724087_x_at) / RFU OASL (11726364_x_at) / Fold change /veh OASL (11726364_x_at) / RFU SOX15 (11748057_x_at) / Fold change /veh SOX15 (11748057_x_at) / RFU CD79A (11719716_a_at) / Fold change /veh CD79A (11719716_a_at) / RFU HIST1H1D (11736915_at) / Fold change /veh HIST1H1D (11736915_at) / RFU CASKIN2 (11723855_a_at) / Fold change /veh CASKIN2 (11723855_a_at) / RFU LOC730098 (11760151_x_at) / Fold change /veh LOC730098 (11760151_x_at) / RFU OR4N2 (11742367_at) / Fold change /veh OR4N2 (11742367_at) / RFU PRRT2 (11749266_a_at) / Fold change /veh PRRT2 (11749266_a_at) / RFU SNX32 (11753110_a_at) / Fold change /veh SNX32 (11753110_a_at) / RFU CDHR5 (11726645_a_at) / Fold change /veh CDHR5 (11726645_a_at) / RFU RCAN1 (11760418_a_at) / Fold change /veh RCAN1 (11760418_a_at) / RFU FAM167A (11723789_a_at) / Fold change /veh FAM167A (11723789_a_at) / RFU FAM26E (11764081_at) / Fold change /veh FAM26E (11764081_at) / RFU ISYNA1 (11749810_s_at) / Fold change /veh ISYNA1 (11749810_s_at) / RFU ACY1 (11761880_at) / Fold change /veh ACY1 (11761880_at) / RFU 11764098_at / Fold change /veh 11764098_at / RFU SAMD14 (11745864_x_at) / Fold change /veh SAMD14 (11745864_x_at) / RFU NPB (11741838_a_at) / Fold change /veh NPB (11741838_a_at) / RFU TMPRSS6 (11731388_a_at) / Fold change /veh TMPRSS6 (11731388_a_at) / RFU KRTAP10-2 (11738614_at) / Fold change /veh KRTAP10-2 (11738614_at) / RFU ARHGAP8 /// PRR5-ARHGAP8 (11727945_x_at) / Fold change /veh ARHGAP8 /// PRR5-ARHGAP8 (11727945_x_at) / RFU KRTAP5-7 /// NADSYN1 (11734609_at) / Fold change /veh KRTAP5-7 /// NADSYN1 (11734609_at) / RFU RASL12 (11751679_a_at) / Fold change /veh RASL12 (11751679_a_at) / RFU CDKN2B (11736163_a_at) / Fold change /veh CDKN2B (11736163_a_at) / RFU PRF1 (11729649_at) / Fold change /veh PRF1 (11729649_at) / RFU, ZNF638 /// ZNF638-IT1 / Fold change vs veh, ZNF638 /// ZNF638-IT1 / RFU, PANK3 / Fold change vs veh, PANK3 / RFU, SH3YL1 / Fold change vs veh, SH3YL1 / RFU, ZEB2 / Fold change vs veh, ZEB2 / RFU, NRIP1 / Fold change vs veh, NRIP1 / RFU, PTTG1IP / Fold change vs veh, PTTG1IP / RFU, CAPN2 / Fold change vs veh, CAPN2 / RFU, MED14 / Fold change vs veh, MED14 / RFU, SNORA58 / Fold change vs veh, SNORA58 / RFU, C1orf63 / Fold change vs veh, C1orf63 / RFU, LRRFIP1 / Fold change vs veh, LRRFIP1 / RFU, NDUFAF7 / Fold change vs veh, NDUFAF7 / RFU, SLC12A2 / Fold change vs veh, SLC12A2 / RFU, IBTK / Fold change vs veh, IBTK / RFU, ESF1 / Fold change vs veh, ESF1 / Fold change vs veh, TMEM50B / RFU, TAOK1 / Fold change vs veh, TAOK1 / RFU, ACBD3 / Fold change vs veh, ACBD3 / RFU, TMA16 / Fold change vs veh, TMA16 / RFU, RWDD3 / Fold change vs veh, RWDD3 / RFU, BCAT1 / Fold change vs veh, BCAT1 / RFU, EDEM3 / Fold change vs veh, EDEM3 / RFU, TMEM33 / Fold change vs veh, TMEM33 / RFU, WDR75 / Fold change vs veh, WDR75 / RFU, AHCTF1 / Fold change vs veh, AHCTF1 / RFU, TFRC / Fold change vs veh, TFRC / RFU, ZDHHC17 / Fold change vs veh, ZDHHC17 / RFU, NOM1 / Fold change vs veh, NOM1 / RFU, ARL8B / Fold change vs veh, ARL8B / RFU, ZBTB11 / Fold change vs veh, ZBTB11 / RFU, TAMM41 / Fold change vs veh, TAMM41 / RFU, KIAA1704 /// LOC100996395 / Fold change vs veh, KIAA1704 /// LOC100996395 / RFU, ING1 / Fold change vs veh, ING1 / RFU, TRMT61B / Fold change vs veh, TRMT61B / RFU, FUBP3 / Fold change vs veh, FUBP3 / RFU, TP53 / Fold change vs veh, TP53 / RFU, TNKS2 / Fold change vs veh, TNKS2 / RFU, ZFP14 / Fold change vs veh, ZFP14 / RFU, ACTR2 / Fold change vs veh, ACTR2 / RFU, PPP3R1 / Fold change vs veh, PPP3R1 / RFU, PIK3R1 / Fold change vs veh, PIK3R1 / RFU, HNRNPA1 / Fold change vs veh, HNRNPA1 / RFU, RNF170 / Fold change vs veh, RNF170 / RFU, ZNF28 / Fold change vs veh, ZNF28 / RFU, RNGTT / Fold change vs veh, RNGTT / RFU, OGT / Fold change vs veh, OGT / RFU, BRD1 / Fold change vs veh, BRD1 / RFU, MARS / Fold change vs veh, MARS / RFU, ZNF655 / Fold change vs veh, ZNF655 / RFU, FAHD1 / Fold change vs veh, FAHD1 / RFU, BDP1 / Fold change vs veh, BDP1 / RFU, LRRCC1 / Fold change vs veh, LRRCC1 / RFU, ARID1A / Fold change vs veh, ARID1A / RFU, ZNF146 / Fold change vs veh, ZNF146 / RFU, ZNF330 / Fold change vs veh, ZNF330 / RFU, GPN3 / Fold change vs veh, GPN3 / RFU, C9orf123 / Fold change vs veh, C9orf123 / RFU, N4BP2L2 / Fold change vs veh, N4BP2L2 / RFU, ARFIP1 / Fold change vs veh, ARFIP1 / RFU, FAM179B / Fold change vs veh, FAM179B / RFU, BCL10 / Fold change vs veh, BCL10 / RFU, UHRF1BP1L / Fold change vs veh, UHRF1BP1L / RFU, BET1 / Fold change vs veh, BET1 / RFU, CNOT2 / Fold change vs veh, CNOT2 / RFU, ZNF268 / Fold change vs veh, ZNF268 / Fold change vs veh, ZNF507 / RFU, DGCR2 / Fold change vs veh, DGCR2 / RFU, WDSUB1 / Fold change vs veh, WDSUB1 / Fold change vs veh, HSP90B1 /// MIR3652 / RFU, ADSS / Fold change vs veh, ADSS / RFU, GK / Fold change vs veh, GK / RFU, ZNF148 / Fold change vs veh, ZNF148 / RFU, TAF9 / Fold change vs veh, TAF9 / RFU, SLC1A5 / Fold change vs veh, SLC1A5 / RFU, SLMO2 / Fold change vs veh, SLMO2 / RFU, ABCC4 / Fold change vs veh, ABCC4 / RFU, LOC101060439 /// RAP1B / Fold change vs veh, LOC101060439 /// RAP1B / RFU, RFX7 / Fold change vs veh, RFX7 / RFU, GTPBP10 / Fold change vs veh, GTPBP10 / RFU, CNEP1R1 / Fold change vs veh, CNEP1R1 / RFU, BIVM-ERCC5 /// ERCC5 / Fold change vs veh, BIVM-ERCC5 /// ERCC5 / RFU, ILF3 / Fold change vs veh, ILF3 / RFU 11762660_at / Fold change /veh 11762660_at / RFU VCAN (11757783_s_at) / Fold change /veh VCAN (11757783_s_at) / RFU DDX43 (11728927_at) / Fold change /veh DDX43 (11728927_at) / RFU KRT8 (11758188_x_at) / Fold change /veh KRT8 (11758188_x_at) / RFU NKD1 (11759106_at) / Fold change /veh NKD1 (11759106_at) / RFU SRD5A1 (11742802_a_at) / Fold change /veh SRD5A1 (11742802_a_at) / RFU TPSAB1 /// TPSB2 (11721975_s_at) / Fold change /veh TPSAB1 /// TPSB2 (11721975_s_at) / RFU GSTM3 (11746129_a_at) / Fold change /veh GSTM3 (11746129_a_at) / RFU IL23R (11737362_x_at) / Fold change /veh IL23R (11737362_x_at) / RFU TMEM51 (11727254_a_at) / Fold change /veh TMEM51 (11727254_a_at) / RFU PIWIL2 (11732686_x_at) / Fold change /veh PIWIL2 (11732686_x_at) / RFU ORM1 (11744905_x_at) / Fold change /veh ORM1 (11744905_x_at) / RFU CCDC152 (11743942_at) / Fold change /veh CCDC152 (11743942_at) / RFU ECM1 (11717891_a_at) / Fold change /veh ECM1 (11717891_a_at) / RFU IL23R (11748794_a_at) / Fold change /veh IL23R (11748794_a_at) / RFU TNFAIP8L3 (11732012_x_at) / Fold change /veh TNFAIP8L3 (11732012_x_at) / RFU MBOAT4 (11741988_at) / Fold change /veh MBOAT4 (11741988_at) / RFU 11764193_at / Fold change /veh 11764193_at / RFU TMEM53 (11763286_at) / Fold change /veh TMEM53 (11763286_at) / RFU MAGEB2 (11727129_at) / Fold change /veh MAGEB2 (11727129_at) / RFU TMEM200A (11744735_a_at) / Fold change /veh TMEM200A (11744735_a_at) / RFU CCDC152 (11751479_a_at) / Fold change /veh CCDC152 (11751479_a_at) / RFU FAM211A (11726209_a_at) / Fold change /veh FAM211A (11726209_a_at) / RFU RGS16 (11746705_a_at) / Fold change /veh RGS16 (11746705_a_at) / RFU VCAN (11755009_s_at) / Fold change /veh VCAN (11755009_s_at) / RFU RHOB (11743442_s_at) / Fold change /veh RHOB (11743442_s_at) / RFU RGS16 (11720943_a_at) / Fold change /veh RGS16 (11720943_a_at) / RFU RGS16 (11720944_at) / Fold change /veh RGS16 (11720944_at) / RFU, VPS4B / Fold change vs veh, VPS4B / RFU, CREB1 / Fold change vs veh, CREB1 / RFU, DNAJC13 / Fold change vs veh, DNAJC13 / RFU, GNAQ / Fold change vs veh, GNAQ / RFU, CDK5R1 / Fold change vs veh, CDK5R1 / RFU, ZRANB3 / Fold change vs veh, ZRANB3 / RFU, CUL4A / Fold change vs veh, CUL4A / RFU, CCNY / Fold change vs veh, CCNY / RFU, UFL1 / Fold change vs veh, UFL1 / RFU, COG3 / Fold change vs veh, COG3 / RFU, DIAPH2 / Fold change vs veh, DIAPH2 / RFU, SKA2 / Fold change vs veh, SKA2 / RFU, AFF3 / Fold change vs veh, AFF3 / RFU, LMF1 / Fold change vs veh, LMF1 / RFU, IPO11 / Fold change vs veh, IPO11 / RFU, DFFB / Fold change vs veh, DFFB / RFU, FOXP1 / Fold change vs veh, FOXP1 / RFU, CARD8 / Fold change vs veh, CARD8 / RFU, STRN3 / Fold change vs veh, STRN3 / RFU, ADK / Fold change vs veh, ADK / RFU, RASSF2 / Fold change vs veh, RASSF2 / RFU, WIPF1 / Fold change vs veh, WIPF1 / RFU, LARP1B / Fold change vs veh, LARP1B / RFU, RASA1 / Fold change vs veh, RASA1 / RFU, RB1 / Fold change vs veh, RB1 / RFU, PPFIA1 / Fold change vs veh, PPFIA1 / RFU, MAT2A / Fold change vs veh, MAT2A / RFU, CCT5 / Fold change vs veh, CCT5 / RFU, WDR92 / Fold change vs veh, WDR92 / RFU, CUX1 / Fold change vs veh, CUX1 / RFU, TTC7A / Fold change vs veh, TTC7A / RFU, TMEM135 / Fold change vs veh, TMEM135 / RFU, DEPTOR / Fold change vs veh, DEPTOR / RFU, CPM / Fold change vs veh, CPM / RFU, DNAJB6 / Fold change vs veh, DNAJB6 / RFU, CACNA2D3 / Fold change vs veh, CACNA2D3 / RFU, DTX4 / Fold change vs veh, DTX4 / RFU, TFCP2 / Fold change vs veh, TFCP2 / RFU, GMCL1 /// GMCL1P1 / Fold change vs veh, GMCL1 /// GMCL1P1 / RFU, AEBP2 / Fold change vs veh, AEBP2 / RFU, SNHG1 /// SNORD22 /// SNORD25 /// SNORD26 /// SNORD27 /// SNORD28 /// SNORD29 /// SNORD31 / Fold change vs veh, SNHG1 /// SNORD22 /// SNORD25 /// SNORD26 /// SNORD27 /// SNORD28 /// SNORD29 /// SNORD31 / Fold change (Aza/veh), C12orf56 (ProbeSet 11735607_a_at) / Fold change (ACY-1035/veh), C12orf56 (ProbeSet 11735607_a_at) / Fold change (Aza/veh), FGFR1OP (ProbeSet 11751329_s_at) / Fold change (ACY-1035/veh), FGFR1OP (ProbeSet 11751329_s_at) / Fold change (Aza/veh), VPS36 (ProbeSet 11739960_a_at) / Fold change (ACY-1035/veh), VPS36 (ProbeSet 11739960_a_at) / RFU SYPL1 (11715823_x_at) / Fold change /veh SYPL1 (11715823_x_at) / RFU IGFBP7 (11715501_s_at) / Fold change /veh IGFBP7 (11715501_s_at) / RFU REEP3 (11722064_at) / Fold change /veh REEP3 (11722064_at) / RFU IGLL1 (11728026_x_at) / Fold change /veh IGLL1 (11728026_x_at): dose or concentration left out as unconfirmed
Settings: ProbeSet 11759095_at; LIST D

Nc1ccc(-c2cccs2)cc1NC(=O)c1ccc2c(c1)cc(C1CC1)n2CCN1CCOCC1 [ACY-1035]
Fold change vs veh, GNAQ: 0.95
